Earlier results, collected in patent US10898449B2, “Transdermal therapeutic system containing asenapine” (LTS LOHMANN Therapie-Systeme AG, priority 2016, dated 2021).

How the values were obtained:
[1] = sublingual administration, therapeutic doses
[2] = test system: patients; conditions: human, in vivo

**Q.** Which terminal disposition half-life [1] does the source give for CN1C[C@H]2c3ccccc3Oc3ccc(Cl)cc3[C@@H]2C1 (relative stereo) [asenapine, (3aRS,12bRS)-rel-5-chloro-2,3,3a,12b-tetrahydro-2-methyl-1H-dibenz[2,3:6,7]oxepino[4,5-c]pyrrole] here?
**A.** around 1 day

**Q.** What about the “Somnolence and anxiety (very common), share of the patients” value [2] of the same compound?
**A.** ≥ 10%
